Laboratory results: patent US8952024B2, “Herbicidal pyrimidone derivatives” (E I du Pont de Nemours and Company, priority 2009, dated 2015)

Legend:
Assay in all cases: Test B pre-/postemergence plant response
Assay type in all cases: in vivo
[1] = system: Italian ryegrass (Lolium multiflorum)
Method in brief: (§1)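 Greenhouse herbicide screen. Pre- and postemergence (1- to 4-leaf) spray of compound in solvent/surfactant mixture; loam–sand soil for pre, peat/vermiculite medium for post. Visual control rating 0–100 at 13 to 15 days after treatment.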

[2] = system: Surinam grass (Brachiaria decumbens)
Method in brief: as §1

[3] = system: bermudagrass (Cynodon dactylon)
Method in brief: as §1

[4] = system: blackgrass (Alopecurus myosuroides)
Method in brief: as §1

[5] = system: cocklebur (Xanthium strumarium)
Method in brief: as §1

corn (Zea mays) = system: corn (Zea mays)
Method in brief: as §1

[6] = system: downy bromegrass (Bromus tectorum)
Method in brief: as §1

[7] = system: green foxtail (Setaria viridis)
Method in brief: as §1

kochia (Kochia scoparia) = system: kochia (Kochia scoparia)
Method in brief: as §1

[8] = system: lambsquarters (Chenopodium album)
Method in brief: as §1

[9] = system: large crabgrass (Digitaria sanguinalis)
Method in brief: as §1

[10] = system: pigweed (Amaranthus retroflexus)
Method in brief: as §1

[11] = system: ragweed (common ragweed, Ambrosia elatior)
Method in brief: as §1

soybean (Glycine max) = system: soybean (Glycine max)
Method in brief: as §1

[12] = system: velvetleaf (Abutilon theophrasti)
Method in brief: as §1

wild oat (Avena fatua) = system: wild oat (Avena fatua)
Method in brief: as §1

[13] = system: yellow nutsedge (Cyperus esculentus)
Method in brief: as §1

[14] = 31 g ai/ha, postemergence, scale 0 to 100, 0 is no effect, 100 is complete control
[15] = 62 g ai/ha, postemergence, 0 is no effect, 100 is complete control, 13 to 15 days
[16] = Postemergence, 125 g ai/ha, visual rating after 13 to 15 days, scale 0 (no effect) to 100 (complete control)
[17] = Postemergence, 250 g ai/ha, scale 0 to 100 (0 no effect, 100 complete control)

**Q.** Which results are given for CCCc1ncc(C(=O)C2=C(O)CCCC2=O)c(=O)n1-c1cccc(C)c1 [Compound 79]?
**A.** Plant response rating, Ryegrass, Italian [1, 14]: 20; Ryegrass, Italian plant response rating (0 to 100 scale) [1, 15]: 20; Plant response rating, Ryegrass, Italian [1, 16]: 50; Plant response rating, Ryegrass, Italian [1, 17]: 55; Plant response rating, Surinam Grass [2, 14]: 20; Surinam Grass plant response rating (0 to 100 scale) [2, 15]: 45; Plant response rating, Surinam Grass [2, 16]: 75; Plant response rating, Surinam Grass [2, 17]: 90; Plant response rating, Bermudagrass [3, 14]: 80; Bermudagrass plant response rating (0 to 100 scale) [3, 15]: 80; Plant response rating, Bermudagrass [3, 16]: 85; Plant response rating, Bermudagrass [3, 17]: 85; Plant response rating, Blackgrass [4, 14]: 5; Blackgrass plant response rating (0 to 100 scale) [4, 15]: 15; Plant response rating, Blackgrass [4, 16]: 30; Plant response rating, Blackgrass [4, 17]: 45; Plant response rating, Cocklebur [5, 14]: 95; Cocklebur plant response rating (0 to 100 scale) [5, 15]: 98; Plant response rating, Cocklebur [5, 16]: 98; Plant response rating, Cocklebur [5, 17]: 98; Plant response rating, Corn (corn (Zea mays); [14]): 5; Corn plant response rating (0 to 100 scale) (corn (Zea mays); [15]): 45; Plant response rating, Corn (corn (Zea mays); [16]): 60; Plant response rating, Corn (corn (Zea mays); [17]): 75; Plant response rating, Bromegrass, Downy [6, 14]: 5; Bromegrass, Downy plant response rating (0 to 100 scale) [6, 15]: 10; Plant response rating, Bromegrass, Downy [6, 16]: 30; Plant response rating, Bromegrass, Downy [6, 17]: 65; Plant response rating, Foxtail, Green [7, 14]: 60; Foxtail, Green plant response rating (0 to 100 scale) [7, 15]: 60; Plant response rating, Foxtail, Green [7, 16]: 80; Plant response rating, Foxtail, Green [7, 17]: 98; Plant response rating, Kochia (kochia (Kochia scoparia); [14]): 75; Kochia plant response rating (0 to 100 scale) (kochia (Kochia scoparia); [15]): 75; Plant response rating, Kochia (kochia (Kochia scoparia); [16]): 75; Plant response rating, Kochia (kochia (Kochia scoparia); [17]): 80; Plant response rating, Lambsquarters [8, 14]: 95; Lambsquarters plant response rating (0 to 100 scale) [8, 15]: 98; Plant response rating, Lambsquarters [8, 16]: 100; Plant response rating, Lambsquarters [8, 17]: 100; Plant response rating, Crabgrass, Large [9, 14]: 80; Crabgrass, Large plant response rating (0 to 100 scale) [9, 15]: 85; Plant response rating, Crabgrass, Large [9, 16]: 90; Plant response rating, Crabgrass, Large [9, 17]: 95; Plant response rating, Pigweed [10, 14]: 100; Pigweed plant response rating (0 to 100 scale) [10, 15]: 100; Plant response rating, Pigweed [10, 16]: 100; Plant response rating, Pigweed [10, 17]: 100; Plant response rating, Ragweed [11, 14]: 80; Ragweed plant response rating (0 to 100 scale) [11, 15]: 85; Plant response rating, Ragweed [11, 16]: 95; Plant response rating, Ragweed [11, 17]: 98; Plant response rating, Soybean (soybean (Glycine max); [14]): 75; Soybean plant response rating (0 to 100 scale) (soybean (Glycine max); [15]): 90; Plant response rating, Soybean (soybean (Glycine max); [16]): 95; Plant response rating, Soybean (soybean (Glycine max); [17]): 98; Plant response rating, Velvetleaf [12, 14]: 95; Velvetleaf plant response rating (0 to 100 scale) [12, 15]: 98; Plant response rating, Velvetleaf [12, 16]: 98; Plant response rating, Velvetleaf [12, 17]: 100; Plant response rating, Oat, Wild (wild oat (Avena fatua); [14]): 40; Oat, Wild plant response rating (0 to 100 scale) (wild oat (Avena fatua); [15]): 45; Plant response rating, Oat, Wild (wild oat (Avena fatua); [16]): 60; Plant response rating, Oat, Wild (wild oat (Avena fatua); [17]): 75; Plant response rating, Nutsedge, Yellow [13, 14]: 25; Nutsedge, Yellow plant response rating (0 to 100 scale) [13, 15]: 60; Plant response rating, Nutsedge, Yellow [13, 16]: 70; Plant response rating, Nutsedge, Yellow [13, 17]: 80
